According to ChEMBL document CHEMBL3826933, “Discovery of 7-(Prolinol-N-yl)-2-phenylamino-thiazolo[5,4-d]pyrimidines as Novel Non-Nucleoside Partial Agonists for the A2A Adenosine Receptor: Prediction from Molecular Modeling” (J Med Chem, 2016):
In brackets after ≈: the same amount, converted by molar mass.

How the values were obtained:
Adenosine receptor A1 = target: T1, Adenosine receptor A1 (Homo sapiens, UniProt P30542); experiment: Displacement of [3H]CCPA from recombinant human adenosine A1 receptor expressed in CHO cell membrane after 3 hrs by microbeta scintillation counting method; format: cell membranes
T1 sequence (P30542 whole entry): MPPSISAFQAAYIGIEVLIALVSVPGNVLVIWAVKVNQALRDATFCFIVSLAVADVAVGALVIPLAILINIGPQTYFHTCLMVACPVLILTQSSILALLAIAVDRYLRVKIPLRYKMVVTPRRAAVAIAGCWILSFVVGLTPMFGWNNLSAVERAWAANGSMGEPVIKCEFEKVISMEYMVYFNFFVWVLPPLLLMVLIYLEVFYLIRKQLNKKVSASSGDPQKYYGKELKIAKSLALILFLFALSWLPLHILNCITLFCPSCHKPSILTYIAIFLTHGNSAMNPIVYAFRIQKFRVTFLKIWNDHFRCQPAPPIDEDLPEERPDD

Adenosine receptor A2a [1] = target: T2, Adenosine receptor A2a (Homo sapiens, UniProt P29274); experiment: Displacement of [3H]NECA from recombinant human adenosine A2A receptor expressed in CHO cell membrane after 3 hrs by microbeta scintillation counting method; format: cell membranes
Adenosine receptor A2b = target: T3, Adenosine receptor A2b (Homo sapiens, UniProt P29275); experiment: Antagonist activity at recombinant human adenosine A2B receptor expressed in CHOK1 cell membrane assessed as inhibition of NECA-stimulated adenylyl cyclase activity incubated for 20 mins in presence of [alpha32P]ATP; format: functional, cell-based, CHO-K1
T3 sequence (P29275 whole entry): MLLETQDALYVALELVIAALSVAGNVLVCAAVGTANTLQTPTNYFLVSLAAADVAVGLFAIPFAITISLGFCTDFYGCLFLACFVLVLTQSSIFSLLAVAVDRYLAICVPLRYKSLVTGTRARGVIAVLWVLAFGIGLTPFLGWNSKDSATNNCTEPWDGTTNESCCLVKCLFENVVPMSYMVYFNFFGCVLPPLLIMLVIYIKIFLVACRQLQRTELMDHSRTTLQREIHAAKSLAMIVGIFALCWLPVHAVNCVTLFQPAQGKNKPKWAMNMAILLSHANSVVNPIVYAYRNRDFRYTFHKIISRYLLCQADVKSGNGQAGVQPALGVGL

Adenosine receptor A2a [2] = target: T2, Adenosine receptor A2a; experiment: Partial agonist activity at recombinant human adenosine A2A receptor expressed in CHOK1 cell membrane assessed as adenylyl cyclase activity at 1 to 100 uM incubated for 20 mins in presence of [alpha32P]ATP relative to NECA; format: functional, cell-based; details: CHO-K1
[3] = Thermodynamic equilibrium solubility of compound in water at 1 to 300 ug after overnight incubation by microplate reader analysis; format: physicochemical; details: read-out: Therm_solubility
Adenosine receptor A3 = target: T4, Adenosine receptor A3 (Homo sapiens, UniProt P0DMS8); experiment: biochemical
T4 sequence (P0DMS8 whole entry): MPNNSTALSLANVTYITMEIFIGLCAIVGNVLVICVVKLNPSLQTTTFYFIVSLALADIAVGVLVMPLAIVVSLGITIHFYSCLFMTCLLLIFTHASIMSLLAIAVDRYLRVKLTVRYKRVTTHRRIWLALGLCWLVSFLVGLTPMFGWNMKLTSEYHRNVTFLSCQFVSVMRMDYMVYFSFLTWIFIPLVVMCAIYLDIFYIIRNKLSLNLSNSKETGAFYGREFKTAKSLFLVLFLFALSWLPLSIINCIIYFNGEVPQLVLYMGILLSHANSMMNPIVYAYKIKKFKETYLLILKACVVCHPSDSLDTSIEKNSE
Description: Displacement of [3H]HEMADO from recombinant human adenosine A3 receptor expressed in CHO cell membrane after 3 hrs by microbeta scintillation counting method

Adenosine receptor A2a [4] = target: T2, Adenosine receptor A2a; experiment: Partial agonist activity at recombinant human adenosine A2A receptor expressed in CHOK1 cell membrane assessed as adenylyl cyclase activity at 100 uM incubated for 20 mins in presence of [alpha32P]ATP relative to NECA; format: functional, cell-based; details: CHO-K1
CHO [5] = experiment: Selectivity ratio of Ki for recombinant human adenosine A1 receptor expressed in CHO cell membrane to Ki for recombinant human adenosine A2A receptor expressed in CHO cell membrane; format: cell-based
CHO [6] = experiment: Selectivity ratio of Ki for recombinant human adenosine A3 receptor expressed in CHO cell membrane to Ki for recombinant human adenosine A2A receptor expressed in CHO cell membrane; format: cell-based
[7] = Thermodynamic equilibrium solubility of compound in phosphate buffered saline at 1 to 300 ug after overnight incubation by microplate reader analysis; format: physicochemical; details: read-out: Therm_solubility
[8] = Thermodynamic equilibrium solubility of compound in simulated gastric fluid at 1 to 300 ug after overnight incubation by microplate reader analysis; format: ADME; details: read-out: Therm_solubility

T2 sequence (P29274 whole entry): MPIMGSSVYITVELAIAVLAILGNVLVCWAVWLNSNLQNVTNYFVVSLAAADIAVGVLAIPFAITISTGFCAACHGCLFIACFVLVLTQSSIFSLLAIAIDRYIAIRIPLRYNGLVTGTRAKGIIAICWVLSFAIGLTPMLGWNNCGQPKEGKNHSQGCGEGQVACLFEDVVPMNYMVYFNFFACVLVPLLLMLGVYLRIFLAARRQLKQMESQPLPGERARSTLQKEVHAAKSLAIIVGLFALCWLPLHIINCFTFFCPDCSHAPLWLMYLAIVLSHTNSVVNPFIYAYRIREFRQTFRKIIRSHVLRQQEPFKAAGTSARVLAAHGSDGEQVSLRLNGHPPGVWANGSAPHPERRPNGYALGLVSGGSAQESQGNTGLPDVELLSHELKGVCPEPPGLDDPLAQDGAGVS

Row | Structure (SMILES) | Ki (Adenosine receptor A1) [µM] | Ki (Adenosine receptor A2a [1]) [µM] | Ki (Adenosine receptor A2b) [µM] | Efficacy (Adenosine receptor A2a [2]) [%] | solubility thermodynamic [3] [µg/mL] | Ki (Adenosine receptor A3) [µM] | Efficacy (Adenosine receptor A2a [4]) [%] | solubility thermodynamic [7] [µg/mL] | solubility thermodynamic [8] [µg/mL] | Ratio Ki (CHO [5]) | Ratio Ki (CHO [6])
1 | Brc1cccc(Nc2nc3c(N4CCCC4)ncnc3s2)c1 | > 100 | 0.245 | > 10 | 10 | > 150 | 1.29 |  |  |  |  | 
2 | CN(C)c1ncnc2sc(Nc3ccc(Cl)cc3)nc12 | > 100 | > 100 | > 10 |  |  | > 10 |  |  |  |  | 
3 | Clc1ccc(Nc2nc3c(N4CCOCC4)ncnc3s2)cc1 | > 100 | 1.4 | > 10 |  |  | > 100 |  |  |  |  | 
4 | Clc1ncnc2sc(NCCN3CCOCC3)nc12 | > 100 | > 100 | > 10 |  |  | > 100 |  |  |  |  | 
5 | c1ccc(Nc2nc3c(N4CCCCC4)ncnc3s2)cc1 | > 30 | 0.98 | > 10 |  |  | 12.1 |  |  |  |  | 
6 | Clc1ncnc2sc(Nc3ccccc3)nc12 | > 100 | 1.52 | > 10 |  |  | 3.67 |  |  |  |  | 
7 | COc1cc(Nc2nc3c(Cl)ncnc3s2)cc(OC)c1OC | > 100 | 1.05 | > 10 |  |  | 2.65 |  |  |  |  | 
8 | CCN1CCN(c2ncnc3sc(Nc4ccccc4)nc23)CC1 | > 100 | 8.39 | > 10 |  |  | > 30 |  |  |  |  | 
9 | O=[N+]([O-])c1ccc(Nc2nc3c(Cl)ncnc3s2)cc1 | > 30 | > 30 | > 10 |  |  | 7.95 |  |  |  |  | 
10 | CN1CCN(c2ncnc3sc(Nc4ccc(Cl)cc4)nc23)CC1 | > 100 | > 100 | > 10 |  |  | > 10 |  |  |  |  | 
11 | S=C(NCc1ccccc1)N(Cc1ccccc1)c1nc2c(Cl)ncnc2s1 | > 30 | 1.87 | > 10 |  |  |  |  |  |  |  | 
12 | Cc1ccc(Nc2nc3c(Cl)ncnc3s2)cc1 | > 100 | 4.93 | > 10 |  |  | 4.64 |  |  |  |  | 
13 | COc1cc(Nc2nc3c(N4CCCC4)ncnc3s2)cc(OC)c1OC | > 100 | 0.102 | > 10 | 10 |  | 1.28 |  |  |  | > 100 | 12
14 | c1ccc(Nc2nc3c(N4CCC(N5CCCCC5)CC4)ncnc3s2)cc1 | > 100 | > 100 | > 10 |  |  | > 100 |  |  |  |  | 
15 | Clc1ccc(Nc2nc3c(N4CCCCC4)ncnc3s2)cc1 | > 100 | 13.2 | > 10 |  |  | 18.3 |  |  |  |  | 
16 | c1ccc(Nc2nc3c(N4CCNCC4)ncnc3s2)cc1 | > 30 | 9.09 | > 10 |  |  | > 10 |  |  |  |  | 
17 | Cc1ccc(Nc2nc3c(N4CCCC4)ncnc3s2)cc1 | > 100 | 0.974 | > 10 | 10 | > 150 | 0.563 |  |  |  |  | 
18 | Clc1ccc(Nc2nc3c(N4CCCC4)ncnc3s2)cc1 | > 100 | 2.06 | > 10 | 10 |  | 4.26 |  |  |  |  | 
19 | c1ccc(Nc2nc3c(N4CCOCC4)ncnc3s2)cc1 | > 100 | 0.333 | > 10 |  |  | 4.46 |  |  |  | > 3000 | 13
20 | CCN(CC)c1ncnc2sc(Nc3ccccc3)nc12 | > 100 | 2.21 | > 10 |  |  | > 30 |  |  |  |  | 
21 | CN(C)c1ncnc2sc(Nc3ccccc3)nc12 | > 100 | 1.27 | > 10 |  |  | 1.28 |  |  |  |  | 

Further lines, with some results ahead:

Row | Ki (Adenosine receptor A1) [µM] | Ki (Adenosine receptor A2a [1]) [µM] | Ki (Adenosine receptor A2b) [µM] | Efficacy (Adenosine receptor A2a [2]) [%] | solubility thermodynamic [3] [µg/mL] | Ki (Adenosine receptor A3) [µM] | Efficacy (Adenosine receptor A2a [4]) [%] | solubility thermodynamic [7] [µg/mL] | solubility thermodynamic [8] [µg/mL] | Structure (SMILES) | Ratio Ki (CHO [5]) | Ratio Ki (CHO [6])
22 | 0.713 | 1.11 | > 10 |  |  | 0.594 |  |  |  | COc1ccc(Nc2nc3c(N4CCC[C@H]4CO)ncnc3s2)cc1 |  | 
23 | 7.24 | 1.5 | > 10 |  |  | 7.33 |  |  |  | O=C(Nc1nc2c(Cl)ncnc2s1)c1ccccc1 |  | 
24 | > 30 | 2.84 | > 10 |  |  | 4.31 |  |  |  | CN1CCN(c2ncnc3sc(Nc4ccccc4)nc23)CC1 |  | 
25 | > 30 | 0.351 | > 10 | 10 |  | 8.63 |  |  |  | c1ccc(Nc2nc3c(N4CCCC4)ncnc3s2)cc1 |  | 
26 | > 30 | 3.18 | > 10 |  |  | 3.63 |  |  |  | O=[N+]([O-])c1ccc(Nc2nc3c(N4CCCC4)ncnc3s2)cc1 |  | 
27 | 0.53 | 0.153 | > 10 |  | 160 (≈ 0.394 mM) | 1.07 | 50 |  |  | OC[C@@H]1CCCN1c1ncnc2sc(Nc3cccc(Br)c3)nc12 | 3 | 3
28 | 7.97 | 3.26 | > 10 |  |  | 3.42 | 50 |  |  | OC[C@@H]1CCCN1c1ncnc2sc(Nc3c(F)cccc3F)nc12 |  | 
29 | 17.8 | 8.11 | > 10 |  |  | 17.2 |  |  |  | Fc1cccc(F)c1Nc1nc2c(Cl)ncnc2s1 |  | 
30 | 0.555 | 0.2 | > 10 |  | 4300 (≈ 13.1 mM) | 0.978 | 50 | 4800 (≈ 14.7 mM) | 3500 (≈ 10.7 mM) | OC[C@@H]1CCCN1c1ncnc2sc(Nc3ccccc3)nc12 | 3 | 3
31 | 2.31 | 2.26 | > 10 | 10 |  | 3.19 |  |  |  | Fc1cccc(F)c1Nc1nc2c(N3CCCC3)ncnc2s1 |  | 
32 | 11.5 | 3.57 | > 10 |  |  | 5.88 |  |  |  | COc1ccc(Nc2nc3c(Cl)ncnc3s2)cc1 |  | 
33 | 0.974 | 0.33 | > 10 |  |  | 1.46 | 50 |  |  | COc1cc(Nc2nc3c(N4CCC[C@H]4CO)ncnc3s2)cc(OC)c1OC |  | 
34 | 0.399 | 0.313 | > 10 |  |  | 0.843 | 50 |  |  | Cc1ccc(Nc2nc3c(N4CCC[C@H]4CO)ncnc3s2)cc1 |  | 
35 | 12.6 | 2.96 | > 10 |  |  | 3.9 |  |  |  | Clc1ncnc2sc(Nc3cccc(Br)c3)nc12 |  | 
36 | 16.5 | 11.2 | > 10 |  |  | 3.89 |  |  |  | CCN(CC)c1ncnc2sc(Nc3ccc(Cl)cc3)nc12 |  | 
37 | 25 | 2.69 | > 10 |  |  | 4.94 |  |  |  | Clc1ccc(Nc2nc3c(Cl)ncnc3s2)cc1 |  | 
38 | 0.629 | 0.466 | > 10 |  |  | 0.934 | 50 |  |  | OC[C@@H]1CCCN1c1ncnc2sc(Nc3ccc(Cl)cc3)nc12 |  | 
